Data: patent US7192746B2, “α-Isomaltosyltransferase, process for producing the same and use thereof” (Kabushiki Kaisha Hayashibara Seibutsu Kagaku Kenkyujo, priority 2000, dated 2007)

What was measured:
Assay type in all cases: biochemical
[1] = tested on: α-isomaltosyl-transferring enzyme from Bacillus globisporus C11; assay: Formation of cyclotetrasaccharide from components A, B and C; details: Enzyme of Strain C11; for Saccharide composition, remaining Substrate: 1% (w/v) substrate, pH 6.0, 1 unit/g substrate; for Saccharide composition, remaining Substrate / Saccharide composition, Cyclotetrasaccharide / Saccharide composition, Glucose / Saccharide composition, Others: 35° C., 8 hours
Method: (§1) Using a purified α-isomaltosyl-transferring enzyme, the formation of cyclotetrasaccharide from the above-identified components A, B and C was examined as follows: One percent (w/v) of an aqueous solution (pH 6.0) of the component A (3-O-α-isomaltosylpanose represented by Chemical Formula 1), the component B (4-O-α-isomaltosylpanose represented by Chemical Formula 2), or the component C (1-O-α-isomaltosyl-β-panoside represented by Chemical Formula 3) was prepared into a substrate solution. To each of the resulting solutions was added one unit/g substrate of a purified specimen of α-isomaltosyl-transferring enzyme from Bacillus globisporus C9 obtained by the method in Experiment 4, or Bacillus globisporus C11 obtained by the method in Experiment 7, followed by enzymatic reaction at 35° C. for eight hours. Thereafter, the resulting mixtures were analyzed on HPLC for saccharide composition (%).

[2] = tested on: α-isomaltosyl-transferring enzyme from Bacillus globisporus C9; assay: as above; details: Enzyme of Strain C9; for Saccharide composition, remaining Substrate: 1% (w/v) substrate, pH 6.0, 1 unit/g substrate; for Saccharide composition, remaining Substrate / Saccharide composition, Cyclotetrasaccharide / Saccharide composition, Glucose / Saccharide composition, Others: 35° C., 8 hours
Method: as §1

[3] = tested on: α-isomaltosyl-transferring enzyme from Bacillus globisporus C11; assay: Formation of reducing power from high molecular glucans; details: Enzyme of Strain C11
Method: (§2) In the above experiment, no detectable amount of a lower molecular weight saccharide such as cyclotetrasaccharide detectable on TLC was formed from soluble starch, pullulan and dextran as high molecular glucans. The following test was carried out to confirm that the α-isomaltosyl-transferring enzyme of the present invention neither increase the reducing power of the above high molecular glucans nor hydrolyze them. To a solution of soluble starch, pullulan or dextran was added 12 units/g substrate of a purified specimen of α-isomaltosyl-transferring enzyme from either Bacillus globisporus C9 obtained by the method in Experiment 4, Bacillus globisporus C11 obtained by the method in Experiment 7, Bacillus globisporus N75 obtained by the method in Experiment 11, or Arthrobacter ramosus S1 obtained by the method in Experiment 15. […] The reducing saccharide contents and the total sugar contents in the resulting reaction mixtures after the enzymatic reactions were respectively quantified by the Somogyi-Nelson's method and the anthrone-sulfuric acid reaction method. The percentage of forming reducing power was calculated by the following equation, and the results are in Table 13:
(§3) [formula] [formula] AR: Reducing sugar content after enzymatic reaction. AT: Total sugar content after enzymatic reaction. BR: Reducing sugar content before enzymatic reaction. BT: Total sugar content before enzymatic reaction.

[4] = tested on: α-isomaltosyl-transferring enzyme from Bacillus globisporus C9; assay: as above; details: Enzyme of Strain C9
Method: as §2, §3

[5] = tested on: α-isomaltosyl-transferring enzyme from Bacillus globisporus N75; assay: as above; details: Enzyme of Strain N75
Method: (§4) In the above experiment, no detectable amount of a lower molecular weight saccharide such as cyclotetrasaccharide detectable on TLC was formed from soluble starch, pullulan and dextran as high molecular glucans. The following test was carried out to confirm that the α-isomaltosyl-transferring enzyme of the present invention neither increase the reducing power of the above high molecular glucans nor hydrolyze them. To a solution of soluble starch, pullulan or dextran was added 12 units/g substrate of a purified specimen of α-isomaltosyl-transferring enzyme from either Bacillus globisporus C9 obtained by the method in Experiment 4, Bacillus globisporus C11 obtained by the method in Experiment 7, Bacillus globisporus N75 obtained by the method in Experiment 11, or Arthrobacter ramosus S1 obtained by the method in Experiment 15. The resulting each solution was adjusted to give a substrate concentration of one percent (w/v) and incubated at 35° C. and pH 6.0 for four hours. The reducing saccharide contents and the total sugar contents in the resulting reaction mixtures after the enzymatic reactions were respectively quantified by the Somogyi-Nelson's method and the anthrone-sulfuric acid reaction method. The percentage of forming reducing power was calculated by the following equation, and the results are in Table 13:
as §3

[6] = tested on: α-isomaltosyl-transferring enzyme from Arthrobacter ramosus S1; assay: as above; details: printed Enzyme of Strain N75 a second time
Method: as §4, §3

[7] = tested on: α-isomaltosyl-transferring enzyme from Bacillus globisporus C11; assay: Action on saccharides (substrates, TLC); parameters: key: −: there was found no substrate change before and after the enzymatic reaction; +: there were found both the reduction of substrate and the formation of cyclotetrasaccharide after the enzymatic reaction; details: 2 units/g substrate, 2% (w/v) substrate, 30° C., pH 6.0, 24 hours
Method in brief: (§5)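 We incubate purified enzyme (2 units/g substrate) with 2% (w/v) saccharide for 24 h at 30° C., pH 6.0. Pre- and post-reaction samples are then compared on silica TLC.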

[8] = tested on: α-isomaltosyl-transferring enzyme from Bacillus globisporus C9; assay: Action on saccharides (substrates, TLC); parameters: key: −: there was found no substrate change before and after the enzymatic reaction; +: there were found both the reduction of substrate and the formation of cyclotetrasaccharide after the enzymatic reaction; details: 2 units/g substrate, 2% (w/v) substrate, 30° C., pH 6.0, 24 hours
Method in brief: as §5

[9] = tested on: α-isomaltosyl-transferring enzyme from Bacillus globisporus N75; assay: Action on saccharides (substrates, TLC); parameters: key: −: there was found no substrate change before and after the enzymatic reaction; +: there were found both the reduction of substrate and the formation of cyclotetrasaccharide after the enzymatic reaction; details: 2 units/g substrate, 2% (w/v) substrate, 30° C., pH 6.0, 24 hours
Method in brief: as §5

[10] = tested on: α-isomaltosyl-transferring enzyme from Arthrobacter ramosus S1; assay: Action on saccharides (substrates, TLC); parameters: key: −: there was found no substrate change before and after the enzymatic reaction; +: there were found both the reduction of substrate and the formation of cyclotetrasaccharide after the enzymatic reaction; details: 2 units/g substrate, 2% (w/v) substrate, 30° C., pH 6.0, 24 hours
Method in brief: as §5

[11] = tested on: α-isomaltosyl-transferring enzyme from Arthrobacter globiformis A19; assay: Action on saccharides (substrates, TLC); parameters: key: −: there was found no substrate change before and after the enzymatic reaction; +: there were found both the reduction of substrate and the formation of cyclotetrasaccharide after the enzymatic reaction; details: partially purified enzyme, 2 units/g substrate, 2% (w/v) substrate, 30° C., pH 6.0, 24 hours
Method in brief: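 Purified enzyme (partially purified for A. globiformis A19) at 2 units/g substrate acted on each saccharide at 2% (w/v), pH 6.0, 30° C., 24 h. Pre- and post-reaction mixtures ran on silica gel TLC in n-butanol/pyridine/water (6:4:1). Total sugars were stained by sulfuric acid-methanol and reducing sugars by diphenylamine-aniline.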

[12] = 0 hr, 12 units/g substrate, 1% (w/v), 35° C., pH 6.0

OC[C@H]1O[C@H](OC[C@H]2O[C@H](O[C@@H]3[C@@H](O)[C@@H](OC[C@H]4O[C@H](O[C@H]5[C@H](O)[C@@H](O)C(O)O[C@@H]5CO)[C@H](O)[C@@H](O)[C@@H]4O)O[C@H](CO)[C@H]3O)[C@H](O)[C@@H](O)[C@@H]2O)[C@H](O)[C@@H](O)[C@@H]1O (stereo partly drawn) [Component A, 3-O-α-isomaltosylpanose]
Saccharide composition, remaining Substrate [1]: 9.0% | Saccharide composition, Cyclotetrasaccharide [1]: 67.4% | Saccharide composition, Glucose [1]: 17.4% | Saccharide composition, Others [1]: 6.2% | Molar ratio of the formed glucose and cyclotetrasaccharide: cyclotetrasaccharide ([1]; numeral in parenthesis): (1.08) | Molar ratio of the formed glucose and cyclotetrasaccharide: glucose ([1]; numeral in parenthesis): (1.00) | Saccharide composition, remaining Substrate [2]: 9.3% | Saccharide composition, Cyclotetrasaccharide [2]: 67.6% | Saccharide composition, Glucose [2]: 17.2% | Saccharide composition, Others [2]: 5.9% | Molar ratio of the formed glucose and cyclotetrasaccharide: cyclotetrasaccharide ([2]; numeral in parenthesis): (1.09) | Molar ratio of the formed glucose and cyclotetrasaccharide: glucose ([2]; numeral in parenthesis): (1.00)

OC[C@H]1O[C@H](OC[C@H]2O[C@H](O[C@@H]3O[C@H](CO)[C@@H](O[C@H]4O[C@H](CO[C@H]5O[C@H](CO)[C@@H](O)[C@H](O)[C@H]5O)[C@@H](O)[C@H](O)[C@H]4O)[C@H](O)[C@H]3O)[C@H](O)[C@@H](O)[C@@H]2O)[C@H](O)[C@@H](O)[C@@H]1O [Component C, 1-O-α-isomaltosyl-β-panoside]
Saccharide composition, remaining Substrate [1]: 56.0% | Saccharide composition, Cyclotetrasaccharide [1]: 5.9% | Saccharide composition, Glucose [1]: 0.2% | Saccharide composition, Others [1]: 37.9% | Saccharide composition, remaining Substrate [2]: 55.8% | Saccharide composition, Cyclotetrasaccharide [2]: 6.0% | Saccharide composition, Glucose [2]: 0.2% | Saccharide composition, Others [2]: 38.0%

dextran
Percentage of forming reducing power [3, 12]: 0.0% | Percentage of forming reducing power ([3]; 1 hr): 0.0% | Percentage of forming reducing power ([3]; 2 hr): 0.0% | Percentage of forming reducing power ([3]; 3 hr): 0.0% | Percentage of forming reducing power ([3]; 4 hr): 0.0% | Percentage of forming reducing power [4, 12]: 0.0% | Percentage of forming reducing power ([4]; 1 hr): 0.0% | Percentage of forming reducing power ([4]; 2 hr): 0.0% | Percentage of forming reducing power ([4]; 3 hr): 0.1% | Percentage of forming reducing power ([4]; 4 hr): 0.0% | Percentage of forming reducing power [5, 12]: 0.0% | Percentage of forming reducing power ([5]; 1 hr): 0.0% | Percentage of forming reducing power ([5]; 2 hr): 0.0% | Percentage of forming reducing power ([5]; 3 hr): 0.0% | Percentage of forming reducing power ([5]; 4 hr): 0.0% | Percentage of forming reducing power [6, 12]: 0.0% | Percentage of forming reducing power ([6]; 1 hr): 0.0% | Percentage of forming reducing power ([6]; 2 hr): 0.0% | Percentage of forming reducing power ([6]; 3 hr): 0.0% | Percentage of forming reducing power ([6]; 4 hr): 0.0% | Enzymatic action for forming cyclotetrasaccharide, Enzyme of Strain C11 [7]: − | Enzymatic action for forming cyclotetrasaccharide, Enzyme of Strain C9 [8]: − | Enzymatic action for forming cyclotetrasaccharide, Enzyme of Strain N75 [9]: − | Enzymatic action for forming cyclotetrasaccharide, Enzyme of Strain S1 [10]: − | Enzymatic action for forming cyclotetrasaccharide, Enzyme of Strain A19 [11]: −

pullulan
Percentage of forming reducing power [3, 12]: 0.0% | Percentage of forming reducing power ([3]; 1 hr): 0.0% | Percentage of forming reducing power ([3]; 2 hr): 0.0% | Percentage of forming reducing power ([3]; 3 hr): 0.0% | Percentage of forming reducing power ([3]; 4 hr): 0.0% | Percentage of forming reducing power [4, 12]: 0.0% | Percentage of forming reducing power ([4]; 1 hr): 0.0% | Percentage of forming reducing power ([4]; 2 hr): 0.0% | Percentage of forming reducing power ([4]; 3 hr): 0.0% | Percentage of forming reducing power ([4]; 4 hr): 0.0% | Percentage of forming reducing power [5, 12]: 0.0% | Percentage of forming reducing power ([5]; 1 hr): 0.0% | Percentage of forming reducing power ([5]; 2 hr): 0.0% | Percentage of forming reducing power ([5]; 3 hr): 0.0% | Percentage of forming reducing power ([5]; 4 hr): 0.0% | Percentage of forming reducing power [6, 12]: 0.0% | Percentage of forming reducing power ([6]; 1 hr): 0.0% | Percentage of forming reducing power ([6]; 2 hr): 0.0% | Percentage of forming reducing power ([6]; 3 hr): 0.0% | Percentage of forming reducing power ([6]; 4 hr): 0.0% | Enzymatic action for forming cyclotetrasaccharide, Enzyme of Strain C11 [7]: − | Enzymatic action for forming cyclotetrasaccharide, Enzyme of Strain C9 [8]: − | Enzymatic action for forming cyclotetrasaccharide, Enzyme of Strain N75 [9]: − | Enzymatic action for forming cyclotetrasaccharide, Enzyme of Strain S1 [10]: − | Enzymatic action for forming cyclotetrasaccharide, Enzyme of Strain A19 [11]: −
